Measurements reported in patent US12037333B2, “Pyridopyrazine and pyridotriazine inhibitors of influenza virus replication” (priority 2018, dated 2024).

System: Influenza type B (cell culture adapted strain B/Lee/40, ATCC VR-1535)
Assay: Influenza antiviral assay: inhibition of virus-induced cytopathic effects (CPE) in MDCK cells, XTT dye reduction
Format: cell-based
Details: Influenza B virus, MDCK, 96 h, strain B/Lee/40, MDCK cells, CPE inhibition at 4 days

SMILES | EC50
CN1CN(C23c4ccccc4CC2Cc2ccccc23)n2ccc(=O)c(O)c2C1=O (stereo not drawn) [Compound A1, 1-(9a, 10-dihydroindeno[1,2-a]inden-4b(9H)-yl)-5-hydroxy-3-methyl-2,3-dihydro-1H-pyrido[2,1-f][1,2,4]triazine-4,6-dione] | 250 to 375 nM
O=C1c2c(O)c(=O)ccn2N(C23c4ccccc4CC2Cc2ccccc23)CN1CC1CC1 (stereo not drawn) [Compound A2, 3-Cyclopropylmethyl-1-(9a,10-dihydro-9H-indeno[1,2-a]inden-4b-yl)-5-hydroxy-2,3-dihydro-1H-pyrido[2,1-f][1,2,4]triazine-4,6-dione] | > 500 nM
CN1CN(C23c4ccc(F)cc4CC2Cc2cc(F)ccc23)n2ccc(=O)c(O)c2C1=O (stereo not drawn) [Compound A3, 1-(2,7-Difluoro-9a,10-dihydro-9H-indeno[1,2-a]inden-4b-yl)-5-hydroxy-3-methyl-2,3-dihydro-1H-pyrido[2,1-f][1,2,4]triazine-4,6-dione] | > 500 nM
O=C1c2c(O)c(=O)ccn2N(C23c4ccccc4CC2Cc2ccccc23)CN1Cc1ccccc1 (stereo not drawn) [Compound A4, 3-Benzyl-1-(9a,10-dihydro-9H-indeno[1,2-a]inden-4b-yl)-5-hydroxy-2,3-dihydro-1H-pyrido[2,1-f][1,2,4]triazine-4,6-dione] | > 500 nM
O=C1c2c(O)c(=O)ccn2N(C23c4ccccc4CC2Cc2ccccc23)CN1CCOc1ccccc1 (stereo not drawn) [Compound A7, 1-(9a,10-Dihydro-9H-indeno[1,2-a]inden-4b-yl)-5-hydroxy-3-(2-phenoxy-ethyl)-2,3-dihydro-1H-pyrido[2,1-t][1,2,4]triazine-4,6-dione] | < 125 nM
CN1CN(C23c4cc(F)c(F)cc4CC2Cc2cc(F)c(F)cc23)n2ccc(=O)c(O)c2C1=O (stereo not drawn) [Compound A8, 5-Hydroxy-3-methyl-1-(2,3,6,7-tetrafluoro-9a,10-dihydro-9H-indeno[1,2-a]inden-4b-yl)-2,3-dihydro-1H-pyrido[2,1-f][1,2,4]triazine-4,6-dione] | > 500 nM
O=C1c2c(O)c(=O)ccn2N(C23c4ccccc4CC2Cc2c3ccc(F)c2F)CN1CC1CC1 (stereo not drawn) [Compound A9, 3-Cyclopropylmethyl-1-(1,2-difluoro-9a,10-dihydro-9H-indeno[1,2-a]inden-4b-yl)-5-hydroxy-2,3-dihydro-1H-pyrido[2,1-f][1,2,4]triazine-4,6-dione] | 125 to 250 nM
CCN1CN(C23c4ccccc4CC2Cc2cc(F)c(F)cc23)n2ccc(=O)c(O)c2C1=O (stereo not drawn) [Compound A10, 1-(2,3-Difluoro-9a,10-dihydro-9H-indeno[1,2-a]inden-4b-yl)-3-ethyl-5-hydroxy-2,3-dihydro-1H-pyrido[2,1-f][1,2,4]triazine-4,6-dione] | > 500 nM
O=C1c2c(O)c(=O)ccn2N(C23c4ccccc4CC2Cc2c3ccc(F)c2F)CN1Cc1ccccc1 (stereo not drawn) [Compound A11, 3-Benzyl-1-(1,2-difluoro-9a,10-dihydro-9H-indeno[1,2-a]inden-4b-yl)-5-hydroxy-2,3-dihydro-1H-pyrido[2,1-t][1,2,4]triazine-4,6-dione] | 375 to 500 nM
CN1CN(C23c4cccc(F)c4CC2Cc2c(F)cccc23)n2ccc(=O)c(O)c2C1=O (stereo not drawn) [Compound A12, 1-(1,8-Difluoro-9a,10-dihydro-9H-indeno[1,2-a]inden-4b-yl)-5-hydroxy-3-methyl-2,3-dihydro-1H-pyrido[2,1-f][1,2,4]triazine-4,6-dione] | > 500 nM
O=C1c2c(O)c(=O)ccn2N(C23c4ccccc4CC2Cc2cc(F)c(F)cc23)CN1CC1CC1 (stereo not drawn) [Compound A13, 3-Cyclopropylmethyl-1-(2,3-difluoro-9a,10-dihydro-9H-indeno[1,2-a]inden-4b-yl)-5-hydroxy-2,3-dihydro-1H-pyrido[2,1-f][1,2,4]triazine-4,6-dione] | < 125 nM
CCN1CN(C23c4ccccc4CC2Cc2c3ccc(F)c2F)n2ccc(=O)c(O)c2C1=O (stereo not drawn) [Compound A14, 1-(1,2-Difluoro-9a,10-dihydro-9H-indeno[1,2-a]inden-4b-yl)-3-ethyl-5-hydroxy-2,3-dihydro-1H-pyrido[2,1-f][1,2,4]triazine-4,6-dione] | 125 to 250 nM
O=C1c2c(O)c(=O)ccn2N(C23c4ccccc4CC2Cc2c3ccc(F)c2F)CN1CC1CCOCC1 (stereo not drawn) [Compound A15, 1-(1,2-Difluoro-9a,10-dihydro-9H-indeno[1,2-a]inden-4b-yl)-5-hydroxy-3-(tetrahydro-pyran-4-ylmethyl)-2,3-dihydro-1H-pyrido[2,1-f][1,2,4]triazine-4,6-dione] | < 125 nM
O=C1c2c(O)c(=O)ccn2N(C23c4ccccc4CC2Cc2cc(F)c(F)cc23)CN1CC1CCOCC1 (stereo not drawn) [Compound A16, 1-(2,3-Difluoro-9a,10-dihydro-9H-indeno[1,2-a]inden-4b-yl)-5-hydroxy-3-(tetrahydro-pyran-4-ylmethyl)-2,3-dihydro-1H-pyrido[2,1-f][1,2,4]triazine-4,6-dione] | < 125 nM
O=C1c2c(O)c(=O)ccn2N(C23c4ccccc4CC2Cc2c3ccc(F)c2F)CN1Cc1ccc(F)cc1 (stereo not drawn) [Compound A17, 1-(1,2-Difluoro-9a,10-dihydro-9H-indeno[1,2-a]inden-4b-yl)-3-(4-fluoro-benzyl)-5-hydroxy-2,3-dihydro-1H-pyrido[2,1-f][1,2,4]triazine-4,6-dione] | 125 to 250 nM
CN1CN(C23c4ccccc4CC2Cc2cc(F)c(F)cc23)n2ccc(=O)c(O)c2C1=O (stereo not drawn) [Compound A19, 1-(2,3-difluoro-9a,10-dihydroindeno[1,2-a]inden-4b(9H)-yl)-5-hydroxy-3-methyl-2,3-dihydro-1H-pyrido[2,1-f][1,2,4]triazine-4,6-dione] | 250 to 375 nM
O=C1c2c(O)c(=O)ccn2N(C23c4ccccc4CC2Cc2cc(F)c(F)cc23)CN1Cc1ccccc1 (stereo not drawn) [Compound A21, 3-benzyl-1-(2,3-difluoro-9a,10-dihydroindeno[1,2-a]inden-4b(9H)-yl)-5-hydroxy-2,3-dihydro-1H-pyrido[2,1-f][1,2,4]triazine-4,6-dione] | < 125 nM
O=C1c2c(O)c(=O)ccn2N(C23c4ccccc4CC2Cc2cc(F)c(F)cc23)CN1CCc1ccccc1 (stereo not drawn) [Compound A22, 1-(2,3-difluoro-9a,10-dihydroindeno[1,2-a]inden-4b(9H)-yl)-5-hydroxy-3-phenethyl-2,3-dihydro-1H-pyrido[2,1-f][1,2,4]triazine-4,6-dione] | < 125 nM
O=C1c2c(O)c(=O)ccn2N(C23c4ccccc4CC2Cc2cc(F)c(F)cc23)CN1Cc1ccc(F)cc1 (stereo not drawn) [Compound A23, 1-(2,3-Difluoro-9a,10-dihydro-9H-indeno[1,2-a]inden-4b-yl)-3-(4-fluoro-benzyl)-5-hydroxy-2,3-dihydro-1H-pyrido[2,1-f][1,2,4]triazine-4,6-dione] | 250 to 375 nM
O=C1c2c(O)c(=O)ccn2N(C23c4ccccc4CC2Cc2cc(F)c(F)cc23)CN1Cc1cccc(F)c1 (stereo not drawn) [Compound A24, 1-(2,3-difluoro-9a,10-dihydroindeno[1,2-a]inden-4b(9H)-yl)-3-(3-fluorobenzyl)-5-hydroxy-2,3-dihydro-1H-pyrido[2,1-f][1,2,4]triazine-4,6-dione] | 375 to 500 nM
O=C1c2c(O)c(=O)ccn2N(C23c4ccccc4CC2Cc2c3ccc(F)c2F)CN1CCc1ccccc1 (stereo not drawn) [Compound A25, 1-(1,2-difluoro-9a,10-dihydroindeno[1,2-a]inden-4b(9H)-yl)-5-hydroxy-3-phenethyl-2,3-dihydro-1H-pyrido[2,1-f][1,2,4]triazine-4,6-dione] | 375 to 500 nM
